Measured values from PubChem BioAssay AID192 (DTP/NCI, 2004).
Values joined by “and” are separate entries in the source; they are usually repeats but may differ in a detail not shown here. Equal values may be shown once. Inconclusive results and toxic doses are left out.

Tested on: BDF1 mice, B16 melanoma ip, median survival T/C
Test: NCI In Vivo Anticancer Drug Screen. Data for tumor model B16 Melanoma (intraperitoneal) in B6D2F1 (BDF1) mice
Details: endpoint: median survival time, higher = longer survival
Summary of the method: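 Survival or tumor size is measured after treatment of tumor-bearing mice and normalised to the vehicle-treated control group.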

[1] = dose: 12.5 mg/kg/injection, schedule: Q01DX009 (ip), vehicle: Klucel (hydroxypropylcellulose) (HPC)
[2] = dose: 25.0 mg/kg/injection, schedule: Q01DX009 (ip), vehicle: Klucel (hydroxypropylcellulose) (HPC)
[3] = dose: 50.0 mg/kg/injection, schedule: Q01DX009 (ip), vehicle: Klucel (hydroxypropylcellulose) (HPC)
[4] = dose: 0.5 mg/kg/injection, schedule: Q01DX009 (ip), vehicle: saline
[5] = dose: 1.0 mg/kg/injection, schedule: Q01DX009 (ip), vehicle: saline
[6] = dose: 2.0 mg/kg/injection, schedule: Q01DX009 (ip), vehicle: saline
[7] = dose: 50.0 mg/kg/injection, schedule: Q01DX009 (ip), vehicle: saline
[8] = dose: 100.0 mg/kg/injection, schedule: Q01DX009 (ip), vehicle: saline
[9] = dose: 200.0 mg/kg/injection, schedule: Q01DX009 (ip), vehicle: saline
[10] = dose: 400.0 mg/kg/injection, schedule: Q01DX009 (ip), vehicle: saline
[11] = dose: 12.5 mg/kg/injection, schedule: Q01DX009 (ip), vehicle: saline with Tween-80
[12] = dose: 25.0 mg/kg/injection, schedule: Q01DX009 (ip), vehicle: saline with Tween-80
[13] = dose: 400.0 mg/kg/injection, schedule: Q01DX009 (ip), vehicle: saline with Tween-80
[14] = dose: 8.0 mg/kg/injection, schedule: Q01DX009 (ip), vehicle: saline with Tween-80

CCCCCCCCCCCCCCCCCCNC(=O)Nc1c(C)cc(C)cc1C
T/C (dose: 100.0 mg/kg/injection, schedule: Q01DX009 (ip), vehicle: gum acacia): 88 % of control

S=C(S)Nc1cccc2ccccc12
T/C [1]: 96 % of control
T/C [2]: 93 % of control
T/C [3]: 103 % of control

CN(C)c1ccc(-c2cc[n+](C)cc2)cc1
T/C [4]: 109 % of control
T/C [5]: 103 % of control
T/C [6]: 101 % of control
T/C (dose: 3.0 mg/kg/injection, schedule: Q01DX009 (ip), vehicle: saline): 104 % of control
T/C (dose: 6.0 mg/kg/injection, schedule: Q01DX009 (ip), vehicle: saline): 92 % of control

CCCCC(CC)CCC(O)CCC(CC)CC (stereo not given)
T/C (dose: 100.0 mg/kg/injection, schedule: Q01DX009 (ip), vehicle: Klucel (hydroxypropylcellulose) (HPC)): 90 % of control
T/C (dose: 400.0 mg/kg/injection, schedule: Q01DX009 (ip), vehicle: Klucel (hydroxypropylcellulose) (HPC)): 87 % of control

CC(=O)/C(N=O)=C(/C)O
T/C [7]: 110 % of control
T/C [8]: 105 % of control
T/C [9]: 97 % of control

Cn1c(N)c(N=O)c(=O)n(C)c1=O
T/C (dose: 90.0 mg/kg/injection, schedule: Q01DX009 (ip), vehicle: saline with Tween-80): 100 % of control
T/C (dose: 180.0 mg/kg/injection, schedule: Q01DX009 (ip), vehicle: saline with Tween-80): 90 % of control
T/C (dose: 360.0 mg/kg/injection, schedule: Q01DX009 (ip), vehicle: saline with Tween-80): 100 % of control

CN1CCCCC1CCN1c2ccccc2Sc2ccc(Br)cc21 (stereo not given)
T/C (dose: 0.78 mg/kg/injection, schedule: Q01DX009 (ip), vehicle: saline): 109 % of control
T/C (dose: 3.12 mg/kg/injection, schedule: Q01DX009 (ip), vehicle: saline): 105 % of control
T/C (dose: 6.25 mg/kg/injection, schedule: Q01DX009 (ip), vehicle: saline): 107 % of control
T/C (dose: 12.5 mg/kg/injection, schedule: Q01DX009 (ip), vehicle: saline): 96 % of control

CCOP(=O)(CCCCN1C(=O)c2ccccc2C1=O)OCC
T/C [8]: 104 % of control
T/C [9]: 96 % of control
T/C [10]: 103 % of control

O=NO.O=N[O-].O=N[O-].[Co+3].[NH2-].[NH2-].[NH2-].[NH2-]
T/C (dose: 6.25 mg/kg/injection, schedule: Q01DX009 (ip), vehicle: Klucel (hydroxypropylcellulose) (HPC)): 88 % of control
T/C [1]: 91 % of control
T/C [2]: 92 % of control and 101 % of control

CCCCN(C)/N=N/c1[nH]ncc1C(=O)OCC
T/C (dose: 78.7 mg/kg/injection, schedule: Q01DX009 (ip), vehicle: carboxymethylcellulose (CMC)): 109 % of control
T/C (dose: 118.0 mg/kg/injection, schedule: Q01DX009 (ip), vehicle: carboxymethylcellulose (CMC)): 118 % of control
T/C (dose: 177.0 mg/kg/injection, schedule: Q01DX009 (ip), vehicle: carboxymethylcellulose (CMC)): 118 % of control
T/C (dose: 266.0 mg/kg/injection, schedule: Q01DX009 (ip), vehicle: carboxymethylcellulose (CMC)): 109 % of control

S=P(NCCS)(N1CC1)N1CC1
T/C (dose: 6.25 mg/kg/injection, schedule: Q01DX009 (ip), vehicle: saline with Tween-80): 95 % of control
T/C [11]: 96 % of control
T/C [12]: 98 % of control
T/C (dose: 100.0 mg/kg/injection, schedule: Q04DX003 (ip), vehicle: saline with Tween-80): 105 % of control
T/C (dose: 200.0 mg/kg/injection, schedule: Q04DX003 (ip), vehicle: saline with Tween-80): 97 % of control
T/C (dose: 400.0 mg/kg/injection, schedule: Q04DX003 (ip), vehicle: saline with Tween-80): 95 % of control

CCCCCCCCCCOCCCCCCCCCC
T/C [11]: 95 % of control
T/C [12]: 95 % of control
T/C (dose: 50.0 mg/kg/injection, schedule: Q01DX009 (ip), vehicle: saline with Tween-80): 95 % of control
T/C (dose: 200.0 mg/kg/injection, schedule: Q01DX009 (ip), vehicle: saline with Tween-80): 88 % of control
T/C [13]: 88 % of control

COc1ccc(C(C#N)CC(=O)c2ccc3c(c2)OCO3)cc1OC (stereo not given)
T/C [8]: 103 % of control
T/C [9]: 100 % of control
T/C [10]: 100 % of control

Cc1cccc(C)c1NC(=O)Nc1ccc2c(c1)OCO2
T/C (dose: 100.0 mg/kg/injection, schedule: Q04DX003 (ip), vehicle: Klucel (hydroxypropylcellulose) (HPC)): 92 % of control

C=C1C(=O)O[C@@H]2/C=C(/C)[C@@]3(O)C=C[C@](C)(C[C@@H](OC(=O)/C(=C\C)COC(C)=O)[C@@H]12)O3
T/C (dose: 0.03 mg/kg/injection, schedule: Q01DX009 (ip), vehicle: carboxymethylcellulose (CMC)): 99 % of control
T/C (dose: 0.12 mg/kg/injection, schedule: Q01DX009 (ip), vehicle: carboxymethylcellulose (CMC)): 102 % of control
T/C (dose: 0.25 mg/kg/injection, schedule: Q01DX009 (ip), vehicle: carboxymethylcellulose (CMC)): 97 % of control
T/C (dose: 6.0 mg/kg/injection, schedule: Q01DX009 (ip), vehicle: saline with Tween-80): 99 % of control
T/C [14]: 105 % of control
T/C (dose: 12.0 mg/kg/injection, schedule: Q01DX009 (ip), vehicle: saline with Tween-80): 109 % of control
T/C (dose: 18.0 mg/kg/injection, schedule: Q01DX009 (ip), vehicle: saline with Tween-80): 92 % of control

CCOC(=O)C(C(=O)OCC)=C(C)C
T/C (dose: 25.0 mg/kg/injection, schedule: Q01DX009 (ip), vehicle: saline): 123 % of control
T/C [7]: 113 % of control
T/C [8]: 110 % of control
T/C [9]: 94 % of control

COc1ccc2c(c1OC(C)=O)-c1cc(OC(C)=O)cc3c1C(C2)N(C(=O)CN(CCCl)CCCl)CC3 (stereo not given)
T/C (dose: 1.56 mg/kg/injection, schedule: Q04DX003 (ip), vehicle: DMSO): 92 % of control
T/C (dose: 3.13 mg/kg/injection, schedule: Q04DX003 (ip), vehicle: DMSO): 108 % of control
T/C (dose: 6.25 mg/kg/injection, schedule: Q04DX003 (ip), vehicle: DMSO): 115 % of control
T/C (dose: 25.0 mg/kg/injection, schedule: Q04DX003 (ip), vehicle: DMSO): 165 % of control

COc1cc(-c2ccc(N=Nc3ccc4c(S(=O)(=O)O)cc(S(=O)(=O)O)c(N)c4c3O)c(OC)c2)ccc1N=Nc1ccc2c(S(=O)(=O)O)cc(S(=O)(=O)O)c(N)c2c1O
T/C [1]: 88 % of control
T/C [2]: 97 % of control
T/C [3]: 102 % of control

CC[n+]1ccc(Nc2ccc(NC(=O)c3ccc(Nc4cc[n+](CC)c5ccc(N)cc45)cc3)cc2)cc1
T/C [4]: 95 % of control
T/C (dose: 0.5 mg/kg/injection, schedule: Q01DX009 (ip), vehicle: water): 96 % of control
T/C [5]: 102 % of control
T/C (dose: 1.0 mg/kg/injection, schedule: Q01DX009 (ip), vehicle: water): 113 % of control
T/C [6]: 100 % of control
T/C (dose: 2.0 mg/kg/injection, schedule: Q01DX009 (ip), vehicle: water): 116 % of control
T/C (dose: 4.0 mg/kg/injection, schedule: Q01DX009 (ip), vehicle: saline): 111 % of control
T/C (dose: 4.0 mg/kg/injection, schedule: Q01DX009 (ip), vehicle: water): 106 % of control
T/C (dose: 8.0 mg/kg/injection, schedule: Q01DX009 (ip), vehicle: saline): 114 % of control

Nc1nc(-c2ccccc2)c(Br)c(=O)[nH]1
T/C [13]: 150 % of control

CC(=O)N1CCC2(CC1)SSC1(CCN(C(C)=O)CC1)S2
T/C (dose: 5.0 mg/kg/injection, schedule: Q01DX009 (ip), vehicle: saline with Tween-80): 105 % of control
T/C (dose: 10.0 mg/kg/injection, schedule: Q01DX009 (ip), vehicle: saline with Tween-80): 112 % of control

C1CN1P1(N2CC2)=NP(N2CC2)(N2CC2)=NP(N2CC2)(N2CC2)=N1
T/C (dose: 0.25 mg/kg/injection, schedule: Q02DX009 (ip), vehicle: saline with Tween-80): 87 % of control
T/C (dose: 0.5 mg/kg/injection, schedule: Q01DX009 (ip), vehicle: saline with Tween-80): 108 % of control
T/C (dose: 0.5 mg/kg/injection, schedule: Q02DX009 (ip), vehicle: saline with Tween-80): 101 % of control
T/C (dose: 1.0 mg/kg/injection, schedule: Q01DX009 (ip), vehicle: saline with Tween-80): 124 % of control
T/C (dose: 1.0 mg/kg/injection, schedule: Q02DX009 (ip), vehicle: saline with Tween-80): 87 % of control and 94 % of control
T/C (dose: 2.0 mg/kg/injection, schedule: Q01DX009 (ip), vehicle: saline with Tween-80): 123 % of control
T/C (dose: 2.0 mg/kg/injection, schedule: Q02DX009 (ip), vehicle: saline with Tween-80): 99 % of control and 122 % of control
T/C [14]: 170 % of control
T/C (dose: 8.0 mg/kg/injection, schedule: Q02DX009 (ip), vehicle: saline with Tween-80): 153 % of control
